Experimental data: PubChem BioAssay (NCI)
Several values for one entry are separate records, joined by “and”; a condition that tells them apart may be missing. Identical values can stand only once.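 These data come from cells grown in 96-well plates and exposed to compound for 48 hours at five concentrations. The concentration for 50% growth inhibition is given as GI50. Definition used: TGI = concentration required for complete inhibition of growth.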

Experiments:
Experiment in all cases: NCI anticancer screen, dose series, 48 h
786-0 renal = system: 786-0 renal
HS 578T breast = system: HS 578T breast
NCI-H23 lung = system: NCI-H23 lung
NCI-H460 lung = system: NCI-H460 lung
OVCAR-3 ovarian = system: OVCAR-3 ovarian
SF-295 CNS = system: SF-295 CNS
SNB-19 CNS = system: SNB-19 CNS
SR leukemia = system: SR leukemia
T-47D breast = system: T-47D breast
RPMI-8226 leukemia = system: RPMI-8226 leukemia

SMILES | TGI (786-0 renal) | TGI (HS 578T breast) | TGI (NCI-H23 lung) | TGI (NCI-H460 lung) | TGI (OVCAR-3 ovarian) | TGI (SF-295 CNS) | TGI (SNB-19 CNS) | TGI (SR leukemia) | TGI (T-47D breast) | GI50 (NCI-H23 lung) | GI50 (NCI-H460 lung) | GI50 (OVCAR-3 ovarian) | GI50 (RPMI-8226 leukemia) | TGI (RPMI-8226 leukemia) | GI50 (SF-295 CNS) | GI50 (SNB-19 CNS) | GI50 (786-0 renal) | GI50 (HS 578T breast) | GI50 (SR leukemia) | GI50 (T-47D breast)
CC1OC(OC2C(OC3CCC4(C)C(CCC5(C)C4CC=C4C6CC(C)(C)CCC6(C(=O)O)CCC45C)C3(C)CO)OCC(O)C2O)C(O)C(O)C1O (configuration not stated) | > 100 µM | 31.8 µM | 33.1 µM | 43 µM | 81.9 µM | 32 µM | 32.3 µM | 9.74 µM | 46.8 µM | – | – | – | – | – | – | – | – | – | – | –
COc1ccc(C2C(C)C(=O)C(C)C(c3ccc(OC)cc3)N2N=O)cc1 (configuration not stated) | 467 µM | 890 µM | > 750 µM and 713 µM | > 1000 µM | > 1000 µM | 491 µM | 750 µM and > 873 µM | > 1000 µM | 713 µM | > 750 µM | > 750 µM | > 750 µM | > 750 µM | > 1000 µM | 20.7 µM | > 71 µM and 73.1 µM | – | – | – | –
CC(C)(C)c1c2c(c(C(C)(C)C)c3c1OCN(Cc1ccccc1)C3)OCN(Cc1ccccc1)C2 | 27.7 µM | 55.9 µM | 27.4 µM | 28.7 µM | 32.4 µM | 51.6 µM | 34.7 µM | 53.2 µM | > 100 µM | – | – | – | – | 44.6 µM | – | – | – | – | – | –
CCN1Cc2nc3sc(C)c(C)c3c(=O)n2C=C1C | 66.4 µM | 6.92 µM | > 100 µM | > 100 µM | 9.74 µM | > 100 µM | > 100 µM | 8.49 µM | > 100 µM | 7.26 µM | 40.6 µM | 2.75 µM | 2.64 µM | 10.9 µM | 20.2 µM | 17.9 µM | 16.1 µM | 1.66 µM | 1.58 µM | 4.17 µM
Cc1ccc2c(c1)S(=O)(=O)c1ccc3ccccc3c1N2 | > 100 µM | > 100 µM | > 100 µM | > 100 µM | > 100 µM | > 100 µM | > 100 µM | 69.5 µM | > 100 µM | – | – | – | – | – | – | – | – | – | – | –
O=C(c1ccco1)c1c(C(F)(F)F)n([O-])c2ccc(Cl)cc2[n+]1=O | 0.115 µM | 4.37 µM | 2.55 µM | – | 3.92 µM | 7.05 µM | 5.67 µM | 0.574 µM | 3.55 µM | 0.82 µM | 0.547 µM | 1.11 µM | – | – | 1.79 µM | 1.58 µM | 0.043 µM | 1.49 µM | 0.204 µM | 1.41 µM
O=C(Nc1ccc(/C=C/c2ccc(NC(=O)c3cc(S(=O)(=O)O)c4cccnc4c3O)cc2S(=O)(=O)O)c(S(=O)(=O)O)c1)c1cc(S(=O)(=O)O)c2cccnc2c1O | > 54.5 µM | > 74.8 µM | > 42 µM | > 76.9 µM | > 72.2 µM | > 76.8 µM | > 100 µM | 0.17 µM | > 100 µM | 6.65 µM | 22.9 µM | > 56.9 µM | 27 µM | > 65.2 µM | 34.4 µM | 12.2 µM | 4.86 µM | > 53.1 µM | 0.0205 µM | > 49.6 µM
COc1ccc(/C=C2\C=C(c3ccccc3)N(CCc3ccccc3)C2=O)cc1OC | 5.85 µM | 23.4 µM | > 100 µM | 30.7 µM | 17.8 µM | 24 µM | 21.5 µM | 57.7 µM | 28.1 µM | 17 µM | 7.34 µM | 4.82 µM | 18.4 µM | 84.9 µM | 5.95 µM | 5.08 µM | 2.14 µM | 3.66 µM | 11.1 µM | 3.2 µM
COc1cc(C(=O)Nc2cc(OC)c3ccn(C)c3c2)cc2c1C[C@]1(C)CC[C@@H](O)C(C)(C)[C@H]1O2 | 5.22 µM | 2.05 µM | 18.4 µM | > 100 µM | 4.86 µM | 0.143 µM | 90.2 µM | > 100 µM | 14.8 µM | 2.32 µM | 0.586 µM | 1.68 µM | 0.0392 µM | 1.16 µM | 0.0302 µM | 2.7 µM | 0.0878 µM | 0.0673 µM | 0.0837 µM | 1.8 µM
C[C@@H](Oc1ccc(C(=O)NS(=O)(=O)C(C)(C)C)cc1C(F)(F)F)c1ccc(Oc2ccccc2)cn1 | 13 µM | 17.9 µM | 23.3 µM | 13.3 µM | 5.47 µM | 6.89 µM | 14 µM | 13.7 µM | 32.5 µM | 5.14 µM | 3.7 µM | 1.88 µM | 2.95 µM | 9.87 µM | 2.21 µM | 3.02 µM | 3.01 µM | 3.27 µM | 1.29 µM | 4.46 µM
O=c1ssc(Cl)c1Cl | > 7.05 µM | > 10 µM | > 10 µM | > 10 µM | > 10 µM | > 10 µM | > 10 µM | > 10 µM | > 10 µM | – | – | – | – | 9.11 µM | – | – | – | – | – | –
CC(=O)OC12COC1CC(O)C1(C)C(=O)C(O)C3=C(C)C(O)CC(O)(C(OC(=O)c4ccccc4)C21)C3(C)C (configuration not stated) | > 100 µM | 6.15 µM | > 100 µM | > 100 µM | > 39.2 µM | > 100 µM | > 100 µM | > 100 µM | > 100 µM | – | – | – | – | > 59.8 µM | – | – | – | 1.36 µM | – | –
CS(=O)(=O)CC(=O)c1ccccc1 | > 100 µM | > 100 µM | > 100 µM | > 100 µM | > 100 µM | > 100 µM | > 100 µM | > 100 µM | > 100 µM | – | – | – | – | > 100 µM | – | – | – | – | – | –
Oc1cc2ccccc2c(-c2c(O)c(O)cc3ccccc23)c1O | 1.07 µM | > 44.1 µM | 15.4 µM | 2.78 µM | 17.9 µM | > 29.6 µM | 27.8 µM | > 100 µM | 14.5 µM | 0.703 µM | 0.145 µM | 0.825 µM | 0.743 µM | > 28.2 µM | 0.77 µM | 2.75 µM | 0.201 µM | 2.9 µM | 0.912 µM | 0.319 µM
NCC1OC(OC2C(CO)OC(OC3C(O)C(N)CC(N)C3OC3OC(CO)C(O)CC3N)C2O)C(N)C(O)C1OC1OC(CO)C(O)C(O)C1O (configuration not stated) | > 50 µg/mL | > 50 µg/mL | > 50 µg/mL | > 50 µg/mL | > 50 µg/mL | > 50 µg/mL | > 50 µg/mL | > 50 µg/mL | > 50 µg/mL | > 50 µg/mL | > 50 µg/mL | > 50 µg/mL | > 50 µg/mL | > 50 µg/mL | > 50 µg/mL | > 50 µg/mL | > 50 µg/mL | > 50 µg/mL | > 50 µg/mL | > 50 µg/mL
